# Source: patent US8580738B2, “Methods for treatment of reperfusion injury and other cardiac conditions” (The Board of Regents of the University of Texas System, priority 2007, dated 2013)
# “Also recorded” adds a separate entry of the source. Like-named read-outs stand apart in the source and are kept apart here. Where no end group is shown, it is not given here.
# What was measured:
# [1] = system: calcitonin-gene related peptide mRNA in intrinsic cardiac adrenergic cells; test: CGRP mRNA regulation in isolated rat intrinsic cardiac adrenergic (ICA) cells, RT-PCR / quantitative real-time PCR; format: cell-based; settings: for increase in calcitonin-gene related peptide mRNA (quantitative real-time PCR): isolated rat ICA cells, 60-min treatment, DPDPE 100 nM or epinephrine 1 μmol; for increase in calcitonin-gene related peptide mRNA (quantitative real-time PCR) / effect on calcitonin-gene related peptide mRNA levels: FIG. 3; for effect on calcitonin-gene related peptide mRNA levels: rat ICA cells
# Method: 0-h represents immediately after 60-min drug treatment. 6-h and 24-h represent 6 and 24 hrs after 60 min drug treatment, respectively. Epi: epinephrine. UT: DPDPE-untreated.
# RNA load is verified by the amount of GAPDH. Bar graphs are data normalized to their respective GAPDH mRNA.
# [2] = cited from earlier work
# [3] = system: rat myocardial ischemia-reperfusion model; test: Rat myocardial ischemia-reperfusion model (30-min LAD occlusion, 4-hr reperfusion), infarct size; format: in vivo; settings: for infarct size: 30-min ischemia, 4-hr reperfusion, drug i.v. before ischemia, saline control 25±3%
# Method: Rat MI model is created by 30-min LAD ligation followed by 4-h reperfusion.
# (T+C)H: with high dose of terbutaline 1 mg/kg.
# Experimental Myocardial Ischemia-Reperfusion Model. The rat myocardial ischemia-reperfusion model will be used (Birnbaum et al., 2005; Huang et al., 2007). This model consists of 30 min coronary artery occlusion followed by 4-hr reperfusion.
# Saline (0.5 ml) will be infused to rats serving as control.
# Each antagonist or their combination will be infused 20-min prior to DPDPE infusion. Arterial blood pressure and heart rate will be monitored continuously throughout the experiments.
# [4] = system: left ventricular systolic function; test: Left ventricular function by echocardiography after intravenous DPDPE; format: in vivo, rat
# Description: The measurements were obtained from left ventricular short-axis view using echocardiography.
# Intravenous infusion of δ-opioid agonist DPDPE to rats causes sustained increase in left ventricular systolic function as reflected by increased left ventricular fractional shortening and ejection fraction (FIG. 10). The fractional shortening and ejection fraction are two clinical parameters used for evaluating left ventricular function assayed by echocardiograph. This positive inotropic effect elicited by DPDPE sustains for more than 40 minutes following drug injection. Augmenting cardiac contractile function by δ-opioid receptor agonist has not been reported. δ-opioid agonists can augment heart performance and can be beneficial for clinical treatment of congestive heart failure.
# [5] = DPDPE 100 μg/kg i.v., rats n=3, LV short-axis echocardiography, FIG. 10
compound,measurement,setting,value
Cc1ccc(OCC(O)C(C)NC(C)C)c2c1CCC2 (stereo not drawn) [ICI-118551],effect on epinephrine-induced CGRP gene upregulation,"[1]; ICA cells, epinephrine in the presence of ICI-118551, FIG. 5",epinephrine failed to increase; also recorded: attenuated
same,effect on epinephrine-induced CGRP mRNA regulation,"[1]; ICI at 50 μmol/L, ICA cells, FIG. 5",completely eliminated
COc1cccc2c1C(=O)c1c(O)c3c(c(O)c1C2=O)C[C@@](O)(C(=O)CO)C[C@@H]3O[C@H]1C[C@H](N)[C@H](O)[C@H](C)O1 [doxorubicin],incidence of doxorubicin-induced cardiomyopathy,[2]; dose of 501-550 mg/m^2 body surface area,> 5%
same,incidence of doxorubicin-induced cardiomyopathy,[2]; dose over 550 mg/m^2,30%
CNC[C@H](O)c1ccc(O)c(O)c1 [epinephrine],increase in calcitonin-gene related peptide mRNA compared to untreated (UT) group,"[1]; ICA cells treated with epinephrine for 1 hr, FIG. 5",6 fold
same,duration of CGRP gene regulatory effect,[1]; following a brief 60-min epinephrine treatment,24 h
same,increase in calcitonin-gene related peptide mRNA (quantitative real-time PCR),[1],14 fold
same,effect on calcitonin-gene related peptide mRNA levels,[1],increases
CC(C)(C)NCC(O)c1cc(O)cc(O)c1 (stereo not drawn) [terbutaline],"effect on infarct size, drug delivered before LAD ligation / acute MI","[3]; i.v. infusion before LAD ligation, terbutaline 100 μg/kg, CGRP 30 ng/kg or combination, FIG. 9",no significant infarct-size-reduction
"(D-Pen^2, D-Pen^5)-enkephalin [DPDPE]",increase in calcitonin-gene related peptide mRNA (quantitative real-time PCR),[1],2 fold
same,effect on calcitonin-gene related peptide mRNA levels,[1],modestly increases
same,infarct size,[3]; FIG. 6,11±2%
same,reduction of infarct size compared to control group,"[3]; δ-opioid agonist i.v. before ischemia, FIG. 6",57%
same,increase in ejection fraction,[4]; [5],23%
same,increase in fractional shortening,[4]; [5],54%
same,duration of positive inotropic effect following drug injection,"[4]; i.v. DPDPE, rats",more than 40 minutes
"CGRP8-37: calcitonin-gene related peptide receptor antagonist (VTHRLAGLLSRSGGVVKNNFVPTNVGSKAF; ends and bridges not checked; UniProt P06881 90-119, looked up, fragment)",infarct size,[3]; FIG. 6,35±8%
same,increase in infarct size compared to saline control,"[3]; CGRP8-37 i.v. 30 min before onset of myocardial ischemia, FIG. 6",38%
